Here are results for one compound from patent US6713051B2, “Antiperspirant or deodorant compositions” (Unilever Home & Personal Care USA division of Conopco, Inc., priority 2001, dated 2004).

SMILES strings stand for the structures.

In the experiment the test system is Human foreskin keratinocytes. The experiment in a line: Keratinocyte proliferation analysis (DNA content per well, Pico Green). It counts as cell-based. As to conditions: for DNA: 4 days, control (0 μM) 3.5. As for the experimental part: Human foreskin keratinocytes (passage 3) were seeded at 4000 cells/well in 96 well plates in Keratinocyte Growth Medium (abbreviated to KGM) containing 0.03 mM calcium and grown for 3 days at 37° C. The cells were then treated with PPAR ligands in KGM containing 0.03 mM calcium for 4 days prior to harvest. Stock solutions of PPAR ligands were dissolved in dimethylsulphoxide (DMSO) and diluted in KGM before adding to the cells. […] The harvested cells were washed 3× in phosphate buffered saline (PBS) and extracted in 1% Triton X100, 50 mM (tris[hydroxymethyl]aminomethane) (Tris) pH 8.0 plus protease inhibitors pepstatin and leupeptin (100 μl/well). The extract was assayed for DNA content using the Pico Green DNA assay (Molecular Probes, Inc.).
Cultured keratinocytes were treated with cis-9-trans-11 conjugated linoleic acid (CT-CLA) for 4 days. The cells were extracted with Tris-1% Triton X100 and the DNA content per well was determine by the Pico Green assay in accordance with the above described procedure.

With `CC\C=C/C=C/C=C/C=C\CCCCCCCC(=O)O` [cis parinaric acid, cis-parinaric acid], the “keratinocyte DNA synthesis activity, statement” value (Example 12: 10 and 20 μM, 1 way ANOVA, p<0.05) is “significantly reduce”. Besides, the DNA is, setting by setting: (Table 13: 1 μM) 3.3 ng/well; (Table 13: 5 μM) 4.1 ng/well; (Table 13: 10 μM) 2.6 ng/well; (Table 13: 20 μM) 1.5 ng/well.
